The values below come from patent US20240254095A1, “NMDA Receptor Antagonist and Use Thereof” (priority 2021, published 2024).

The structures appear in SMILES notation. “Also recorded” adds a separate entry of the source. Counter-ions that a name gives are not always drawn. Like-named read-outs stand apart in the source and are kept apart here.

In series [1] the target is T1, human NMDA receptors GluN1 and GluN2A subunits (GluN2A-containing NMDAR) (Homo sapiens, UniProt Q05586+Q12879).
T1 construct: expressed in transfected cells; host or cells: HEK293 cells, transient liposome transfection of TRE-GluN1-GluN2A, tTA and pCAG-EGFP
T1 sequence (Q12879 23-1464, other chains not shown): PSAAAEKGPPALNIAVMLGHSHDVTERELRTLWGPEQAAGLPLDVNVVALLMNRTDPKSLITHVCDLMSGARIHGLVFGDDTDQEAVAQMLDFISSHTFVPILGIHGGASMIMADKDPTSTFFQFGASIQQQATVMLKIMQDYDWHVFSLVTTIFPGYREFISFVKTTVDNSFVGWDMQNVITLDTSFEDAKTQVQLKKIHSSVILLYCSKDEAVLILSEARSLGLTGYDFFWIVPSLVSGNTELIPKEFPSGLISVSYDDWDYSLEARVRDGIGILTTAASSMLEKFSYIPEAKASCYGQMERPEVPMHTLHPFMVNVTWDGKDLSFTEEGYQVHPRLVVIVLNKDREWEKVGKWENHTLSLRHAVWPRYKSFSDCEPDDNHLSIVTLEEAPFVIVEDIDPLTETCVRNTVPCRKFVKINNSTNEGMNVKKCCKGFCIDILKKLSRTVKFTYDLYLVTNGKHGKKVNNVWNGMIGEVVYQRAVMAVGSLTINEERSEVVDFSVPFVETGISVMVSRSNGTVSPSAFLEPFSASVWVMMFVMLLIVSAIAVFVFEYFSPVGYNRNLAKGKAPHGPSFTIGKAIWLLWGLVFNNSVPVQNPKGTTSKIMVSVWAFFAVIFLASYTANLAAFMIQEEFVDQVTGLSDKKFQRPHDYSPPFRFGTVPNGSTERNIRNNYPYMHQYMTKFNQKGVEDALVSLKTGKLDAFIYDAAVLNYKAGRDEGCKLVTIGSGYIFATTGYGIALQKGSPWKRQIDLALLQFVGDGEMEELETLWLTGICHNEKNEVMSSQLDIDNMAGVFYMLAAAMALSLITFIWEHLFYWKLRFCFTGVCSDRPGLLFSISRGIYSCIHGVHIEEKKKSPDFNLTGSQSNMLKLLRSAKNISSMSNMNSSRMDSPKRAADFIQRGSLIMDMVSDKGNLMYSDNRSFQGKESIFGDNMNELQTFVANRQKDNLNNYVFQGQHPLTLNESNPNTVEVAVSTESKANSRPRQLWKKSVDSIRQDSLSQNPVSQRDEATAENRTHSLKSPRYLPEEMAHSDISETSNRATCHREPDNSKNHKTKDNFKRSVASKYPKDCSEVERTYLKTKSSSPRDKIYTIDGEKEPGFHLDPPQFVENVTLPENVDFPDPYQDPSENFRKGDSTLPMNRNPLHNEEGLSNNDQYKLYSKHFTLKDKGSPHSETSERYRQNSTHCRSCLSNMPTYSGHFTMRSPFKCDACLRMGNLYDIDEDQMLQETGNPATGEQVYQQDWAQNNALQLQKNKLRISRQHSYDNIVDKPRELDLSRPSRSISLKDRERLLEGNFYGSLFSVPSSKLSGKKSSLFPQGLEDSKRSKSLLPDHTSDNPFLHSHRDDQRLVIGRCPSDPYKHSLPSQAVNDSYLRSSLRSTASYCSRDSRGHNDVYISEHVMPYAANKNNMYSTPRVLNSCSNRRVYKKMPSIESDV
As to the kind of experiment: cell-based. As to the method:
On the day before transfection, HEK293 cells were seeded in a 24-well plate with a 10 mm glass sheet, which was coated with polylysine in advance to increase the adhesion capacity of the cells. The plate was added with DMEM medium containing 10% FBS and incubated at 37° C., in 5% CO2 incubator. When the cell fusion reached 60%-70% after 18-24 hours, the plasmid cDNAs containing TRE-GluN1-GluN2A of human GluN1 and GluN2A, tTA, and pCAG-EGFP were transfected into HEK293 by liposome transfection (TRE-GluN1-GluN2A:tTA:pCAG-EGFP is 0.2 μg:0.2 μg:0.02 μg). Before transfection, anew DMEM medium was changed and added with 1 μg/mL Dox (doxycycline) to induce stable expression in the medium, and added with 100 μM D-APV and 10 mM MgCl2 to avoid cell excitatory toxicity caused by NMDAR overexpression. Cells with green fluorescence were selected for electrophysiological recording after transfection for about 24 h.
A glass plate seeded with HEK293 cells was placed in a recording bath and perfused with the extracellular fluid at a rate of 4 mL/min (NaCl 140 mM, KCl 2.8 mM, HEPES 10 mM, CaCl2 1 mM, glycine 0.1 mM, pH 7.2). The channels of the ALA-VC^3 eight-channel pressure perfusion system were filled with extracellular fluid for washing, extracellular fluid containing glutamic acid (100 μM), and extracellular fluid containing glutamic acid and compound to be tested, respectively, with a drop rate of about 1 drop/sec and 10 μL/drop. HEK293 cells with moderate green fluorescence intensity and good adhesion were selected under a fluorescence microscope for recording. The microglass tube of the perfusion system was placed about ten cells away from the cells to be recorded, and the drug was sprayed to the cell surface under the pressure of air (0.02 MPa). The glass electrode was prepared by drawing with a microelectrode drawing instrument with a resistance of 4-6 MΩ and filled with electrode liquid (CsCl 125 mM, HEPES 10 mM, EGTA 11 mM). The microelectrode manipulator was used to slowly push the glass electrode towards the cells. The electrode was attached to the cell membranes and applied with negative pressure, so that a high-resistance seal of more than 1 GΩ was formed between the electrode tip and the cell membrane, and then negative pressure was given to suck through the cell membrane to form a whole-cell recording mode. After the formation of whole-cell recording mode, the cell membrane potential was clamped at −70 mV. The extracellular fluid containing 100 μM glutamic acid, the extracellular fluid containing 100 μM glutamic acid and the compound to be tested, and the extracellular fluid were sprayed to the cell membrane surface sequentially through the perfusion system for 10 s, 20 s, and 10 s to record the NMDA receptor-mediated current and evaluate the inhibitory effect of the compound on GluN2A-containing NMDAR. The experimental process was controlled by pCLAMP 10.6, and the Digidata 1440A digital-to-analog converter was used to complete the generation of stimulus signal and the acquisition of feedback signal.
The ordinate in the figure is the normalized current ratio, which represents the ratio of the current mediated by NMDAR after administration of ketamine and the compound at a concentration of 10 μM to the current mediated by NMDAR before administration. […] Ketamine was used as a positive control.
The inhibitory percentages of the compound according to the present disclosure on NMDAR-mediated current=[…]/NMDAR mediated-current before administration*100%.

For series [2], the system named is mice. The series can be described thus: High dose toxicity test (behavior of mice after i.p. administration). The series is classed as in vivo. The settings on record: for behavior during observation: observed about one hour; for Rodent Epileptiform Behavior Scale score (maximum): scale 0-8. The arrangement: key to Rodent Epileptiform Behavior Scale score (maximum): 0: No abnormal behavior; 1: Unsteady walking/reduced exercise ability/immobility; 2: Generalized clonus/trembling/writhing; 3: The tail is stiff/swinging; 4: Forelimb contractures; 5: Generalized spasms/convulsions; 6: Startle or running convulsive seizures; 7: Generalized tonic-clonic seizures; 8: dead. As to the method: • 1. Experiments were performed in a quiet environment where animals needed to be weighed and acclimatized in the laboratory room for at least 30 min before the experiment. • 2. The compound to be tested was dissolved with 0.9% physiological saline at a concentration of 10 mg/ml. According to the body weight of mice, a corresponding volume of the compound was intraperitoneal injected (i.p.), so as to provide the target dose. • 3. The mice after administration were placed in transparent observation boxes, and the behavioral changes of the mice were recorded by video and observed for about one hour. (Note: During the observation period, if a mouse was lying still on the stomach, the mouse was turned over with your hand to check whether the righting reflex (RR) of the mouse disappeared. If it disappeared, the mouse was in the state of anesthesia, the time of anesthesia in the mouse was recorded). • 4. After one hour of observation, the mice were returned to the feeding cage and the observation boxes were wiped with 75% alcohol so that the information left over from the previous round (e.g. animal stool, urine and other odors) would not affect the next test results. Animals were replaced for the next round to continue the experiment.
Mice died after ketamine administration.
According to Rodent Epileptiform Behavior Scale score, Compound 9 induced epileptiform behavior in mice with a maximum score of 3. […] According to the Rodent Epileptiform Behavior Scale score. Compound 41 and 42 induced epileptiform behavior in mice with a maximum score of 1. […] The epileptiform behavior was scored according to the Rodent Epileptiform Behavior Scale score.

Where [3] appears, read: NMDAR-mediated current, HEK293 cells expressing human GluN1/GluN2A, 100 μM glutamic acid, clamped at −70 mV, compound 10 μM, read-out: current inhibitory percentages.
Setting [4] is: high dose 150 mg/kg bw, formate, 150 mg/kg.
[5] abbreviates: medium dose 100 mg/kg body weight, formate, 100 mg/kg.
[6] abbreviates: medium dose 100 mg/kg body weight.
Where [7] appears, read: medium dose 100 mg/kg body weight, hydrochloride, 100 mg/kg.

On to `Clc1cccc(C23CCCCC2OCCN3)c1` (racemic) [Compound 9, 4a-(3-chlorophenyl)octahydro-2H-benzo[b][1,4]oxazine formate], for which, in series [1] (setting [3]), the inhibition at 10 µM turned out to be 88.8%. The behavior during observation entry in series [2] (setting [4]) was “the state of anesthesia of mice returned to normal after half an hour; also recorded: the state of anesthesia lasted for half an hour”; in series [2] (setting [5]), “intermittent shaky waking, lying still on the stomach, and tail stiffness (seizure for about 10 seconds); also recorded: Moderate epilepsy”. Further, in series [2] (setting [6]), the “Rodent Epileptiform Behavior Scale score (maximum)” value is reported as 3.
In the case of `Clc1ccccc1C12CCCCC1OCCN2` (racemic) [Compound 11, 4a-(2-chlorophenyl)octahydro-2H-benzo[b][1,4]oxazine formate], the inhibition at 10 µM in series [1] (setting [3]) worked out at 85%. The behavior during observation entry in series [2] (setting [4]) is “the activity reduction in mice lasted for half an hour before returning to normal”; in series [2] (setting [5]), “decreased activity; also recorded: Mild epilepsy”. For the same molecule, the “Rodent Epileptiform Behavior Scale score (maximum)” value in series [2] (setting [6]) stood at 1.
Take `Clc1cccc([C@]23CCCC[C@H]2OCCN3)c1` [Compound 41, (4aR,8aR)-4a-(3-chlorophenyl)octahydro-2H-benzo[b][1,4]oxazine hydrochloride]: in series [1] (setting [3]), the inhibition at 10 µM was found to be 92.9%. Moreover, the behavior during observation entry in series [2] (setting [7]) is listed as “slightly shaky walking; also recorded: Slight shaking”.
For the molecule `Clc1cccc([C@@]23CCCC[C@@H]2OCCN3)c1` [Compound 42, (4aS,8aS)-4a-(3-chlorophenyl)octahydro-2H-benzo[b][1,4]oxazine hydrochloride], in series [1] (setting [3]), the inhibition at 10 µM was 105%. The behavior during observation result in series [2] (setting [7]) was “slightly shaky walking; also recorded: Slight shaking”.
Turning to `Clc1ccccc1[C@]12CCCC[C@H]1OCCN2` [Compound 43, (4aR,8aR)-4a-(2-chlorophenyl)octahydro-2H-benzo[b][1,4]oxazine hydrochloride], the behavior during observation entry in series [2] (setting [7]) is reported as “no obvious abnormalities; also recorded: No abnormal”.
Consider `Clc1ccccc1[C@@]12CCCC[C@@H]1OCCN2` [Compound 44, (4aS,8aS)-4a-(2-chlorophenyl)octahydro-2H-benzo[b][1,4]oxazine hydrochloride], for which the behavior during observation entry in series [2] (setting [7]) was “no obvious abnormalities; also recorded: No abnormal”.
As for `CNC1(c2ccccc2Cl)CCCCC1=O` (centres unmarked) [Ketamine, reference compound], the inhibition at 10 µM in series [1] (HEK293, read-out: current inhibitory percentages) was found to be 102%. For the same molecule, the behavior during observation result in series [2] (high dose 150 mg/kg bw, 150 mg/kg) is listed as “dead”; in series [2] (high dose 150 mg/kg bw, listed as ketamine, 150 mg/kg) it was “Mice died”.
